The target of one assay is T1, Trx-6×His-BCL6 (human BCL6 BTB domain covering amino-acid sequence 5-129) (Homo sapiens, UniProt P41182).
T1 construct: made in house
In words: HTRF assay (BCL6 / BCOR peptide). The format is binding. The conditions noted are these: 1 nM Trx-6×His-BCL6, 300 nM BCOR-AF633 peptide, 2 hours incubation at room temperature. As to the method: After 2 hours incubation at room temperature the plate was read on a Pherastar FSX (BMG Labtech) plate reader equipped with 337 nm laser excitation filter, a first emission filter at 620 nm and a second emission filter at 665 nm. The % inhibition at each concentration was calculated by normalising FRET ratio to the appropriate high (DMSO with all reagents) and low (DMSO without BCL6) controls.
In general terms: In TR-FRET formats the signal depends on donor and acceptor labels being close together.
As to `C[C@@H]1C[C@H](N(C)C)CN(c2ncc(Cl)c(Nc3ccc4c(c3)c3c(c(=O)n4C)OCC(F)(F)[C@H](C4CC4)N3)n2)C1` [Example 1h, (S)-10-((5-chloro-2-((3S,5R)-3-(dimethylamino)-5-methylpiperidin-1-yl)pyrimidin-4-yl)amino)-2-cyclopropyl-3,3-difluoro-7-methyl-1,2,3,4-tetrahydro-[1,4]oxazepino[2,3-c]quinolin-6(7H)-one], the “HTRF avg pIC50” value came to 8.44.
As for “(S)-10-((5-chloro-2-((3R,4S)-3-(hydroxymethyl)-4-methylpyrrolidin-1-yl)pyrimidin-4-yl)amino)-2-cyclopropyl-3,3-difluoro-7-methyl-1,2,3,4-tetrahydro-[1,4]oxazepino[2,3-c]quinolin-6(7H)-one:(S)-10-((5-chloro-2-((3S,4R)-3-(hydroxymethyl)-4-methylpyrrolidin-1-yl)pyrimidin-4-yl)amino)-2-cyclopropyl-3,3-difluoro-7-methyl-1,2,3,4-tetrahydro-[1,4]oxazepino[2,3-c]quinolin-6(7H)-one (1:1) [Example 11j]”, the “HTRF avg pIC50” value amounted to 8.22.

Still in this assay, the particulars now being: 1 nM Trx-6×His-BCL6, 300 nM BCOR-AF633 peptide, 2 hours incubation at room temperature; read-out: HTRF avg pIC50 (converted).
Take `Cn1c(=O)c2c(c3cc(Nc4nc(N5C[C@H](F)C[C@H]5CO)ncc4Cl)ccc31)N[C@@H](C1CC1)C(F)(F)CO2` [Example 12x48b, (S)-10-((5-chloro-2-((2S,4R)-4-fluoro-2-(hydroxymethyl)pyrrolidin-1-yl)pyrimidin-4-yl)amino)-2-cyclopropyl-3,3-difluoro-7-methyl-1,2,3,4-tetrahydro-[1,4]oxazepino[2,3-c]quinolin-6(7H)-one]: the IC50 was 18.6 nM.
Turning to `Cn1c(=O)c2c(c3cc(Nc4nc(N5[C@@H]6COC[C@H]5C[C@@H](O)C6)ncc4F)ccc31)N[C@@H](C1CC1)C(F)(F)CO2` [Example 5a, (S)-2-cyclopropyl-3,3-difluoro-10-((5-fluoro-2-((1R,5S,7R)-7-hydroxy-3-oxa-9-azabicyclo[3.3.1]nonan-9-yl)pyrimidin-4-yl)amino)-7-methyl-1,2,3,4-tetrahydro-[1,4]oxazepino[2,3-c]quinolin-6(7H)-one], the IC50 was 1.51 nM.
Still for that read-out and setting: with `C[C@@H]1CCCN(c2ncc(Cl)c(Nc3ccc4c(c3)c3c(c(=O)n4C)OCC(F)(F)[C@H](C4CC4)N3)n2)C1` [Example 1l, (S)-10-((5-chloro-2-((R)-3-methylpiperidin-1-yl)pyrimidin-4-yl)amino)-2-cyclopropyl-3,3-difluoro-7-methyl-1,2,3,4-tetrahydro-[1,4]oxazepino[2,3-c]quinolin-6(7H)-one] the figure was 25.7 nM; with `CC1CCC(CO)N(c2ncc(Cl)c(Nc3ccc4c(c3)c3c(c(=O)n4C)OCC(F)(F)[C@H](C4CC4)N3)n2)C1` (stereo partly drawn) [Example 12x10, (2S)-10-((5-chloro-2-(2-(hydroxymethyl)-5-methylpiperidin-1-yl)pyrimidin-4-yl)amino)-2-cyclopropyl-3,3-difluoro-7-methyl-1,2,3,4-tetrahydro-[1,4]oxazepino[2,3-c]quinolin-6(7H)-one], 11.7 nM; with `Cn1c(=O)c2c(c3cc(Nc4nc(N5CCC5)ncc4Cl)ccc31)N[C@@H](C1CC1)C(F)(F)CO2` [Example 11v, (S)-10-((2-(azetidin-1-yl)-5-chloropyrimidin-4-yl)amino)-2-cyclopropyl-3,3-difluoro-7-methyl-1,2,3,4-tetrahydro-[1,4]oxazepino[2,3-c]quinolin-6(7H)-one], 5.37 nM.
Consider `Cn1c(=O)c2c(c3cc(Nc4nc(N5CCC(F)(CO)CC5)ncc4Cl)ccc31)N[C@@H](C1CC1)C(F)(F)CO2` [Example 9o, (S)-10-((5-chloro-2-(4-fluoro-4-(hydroxymethyl)piperidin-1-yl)pyrimidin-4-yl)amino)-2-cyclopropyl-3,3-difluoro-7-methyl-1,2,3,4-tetrahydro-[1,4]oxazepino[2,3-c]quinolin-6(7H)-one], for which the IC50 is 9.33 nM.
The same measure, in the same setting: in the case of `CN(C)c1ncc(F)c(Nc2ccc3c(c2)c2c(c(=O)n3C)OCC(F)(F)[C@H](C3CC3)N2)n1` [Example 13p12, (S)-2-cyclopropyl-10-((2-(dimethylamino)-5-fluoropyrimidin-4-yl)amino)-3,3-difluoro-7-methyl-1,2,3,4-tetrahydro-[1,4]oxazepino[2,3-c]quinolin-6(7H)-one] it was 19.1 nM; in that of `Cn1c(=O)c2c(c3cc(Nc4nc(N5CCC(F)(F)C(O)C5)ncc4Cl)ccc31)N[C@@H](C1CC1)C(F)(F)CO2` (mixture of isomers) [Example 9e, (S)-10-((5-chloro-2-((R)-4,4-difluoro-3-hydroxypiperidin-1-yl)pyrimidin-4-yl)amino)-2-cyclopropyl-3,3-difluoro-7-methyl-1,2,3,4-tetrahydro-[1,4]oxazepino[2,3-c]quinolin-6(7H)-one; (S)-10-((5-chloro-2-((S)-4,4-difluoro-3-hydroxypiperidin-1-yl)pyrimidin-4-yl)amino)-2-cyclopropyl-3,3-difluoro-7-methyl-1,2,3,4-tetrahydro-[1,4]oxazepino[2,3-c]quinolin-6(7H)-one], 3.72 nM; in that of `Cn1c(=O)c2c(c3cc(Nc4nc(N5CC(C)(C#N)C5)ncc4Cl)ccc31)N[C@@H](C1CC1)C(F)(F)CO2` [Example 11s, (S)-1-(5-chloro-4-((2-cyclopropyl-3,3-difluoro-7-methyl-6-oxo-1,2,3,4,6,7-hexahydro-[1,4]oxazepino[2,3-c]quinolin-10-yl)amino)pyrimidin-2-yl)-3-methylazetidine-3-carbonitrile], 3.89 nM.
Consider `Cn1c(=O)c2c(c3cc(Nc4nc(N5CCC(C)(O)C5)ncc4Cl)ccc31)N[C@@H](C1CC1)C(F)(F)CO2` (mixture of isomers) [Example 12a, (S)-10-((5-chloro-2-((R)-3-hydroxy-3-methylpyrrolidin-1-yl)pyrimidin-4-yl)amino)-2-cyclopropyl-3,3-difluoro-7-methyl-1,2,3,4-tetrahydro-[1,4]oxazepino[2,3-c]quinolin-6(7H)-one:(S)-10-((5-chloro-2-((S)-3-hydroxy-3-methylpyrrolidin-1-yl)pyrimidin-4-yl)amino)-2-cyclopropyl-3,3-difluoro-7-methyl-1,2,3,4-tetrahydro-[1,4]oxazepino[2,3-c]quinolin-6(7H)-one (1:1)], for which the IC50 was 6.31 nM.
On the same count and under the same terms, in the case of `Cn1c(=O)c2c(c3cc(Nc4nc(N5CCC[C@H]5CO)ncc4Cl)ccc31)N[C@@H](C1CC1)C(F)(F)CO2` [Example 12x44, (S)-10-((5-chloro-2-((S)-2-(hydroxymethyl)pyrrolidin-1-yl)pyrimidin-4-yl)amino)-2-cyclopropyl-3,3-difluoro-7-methyl-1,2,3,4-tetrahydro-[1,4]oxazepino[2,3-c]quinolin-6(7H)-one] it was 5.01 nM.
Still for that read-out and setting: in the case of `CO[C@@H]1C[C@H](C)CN(c2ncc(Cl)c(Nc3ccc4c(c3)c3c(c(=O)n4C)OCC(F)(F)[C@H](C4CC4)N3)n2)C1` [Example 12x05, (S)-10-((5-chloro-2-((3R,5S)-3-methoxy-5-methylpiperidin-1-yl)pyrimidin-4-yl)amino)-2-cyclopropyl-3,3-difluoro-7-methyl-1,2,3,4-tetrahydro-[1,4]oxazepino[2,3-c]quinolin-6(7H)-one] it was 3.72 nM; in that of `Cn1c(=O)c2c(c3cc(Nc4nc(N5CC(C)(O)C5)ncc4Cl)ccc31)N[C@@H](C1CC1)C(F)(F)CO2` [Example 1n, (S)-10-((5-chloro-2-(3-hydroxy-3-methylazetidin-1-yl)pyrimidin-4-yl)amino)-2-cyclopropyl-3,3-difluoro-7-methyl-1,2,3,4-tetrahydro-[1,4]oxazepino[2,3-c]quinolin-6(7H)-one], 13.8 nM.
The same measure, in the same setting: in the case of `Cn1c(=O)c2c(c3cc(Nc4nc(N5CCN6C(=O)CCC6C5)ncc4Cl)ccc31)N[C@@H](C1CC1)C(F)(F)CO2` (mixture of isomers) [Example 12i, (S)-10-((5-chloro-2-((R)-6-oxohexahydropyrrolo[1,2-a]pyrazin-2(1H)-yl)pyrimidin-4-yl)amino)-2-cyclopropyl-3,3-difluoro-7-methyl-1,2,3,4-tetrahydro-[1,4]oxazepino[2,3-c]quinolin-6(7H)-one:(S)-10-((5-chloro-2-((S)-6-oxohexahydropyrrolo[1,2-a]pyrazin-2(1H)-yl)pyrimidin-4-yl)amino)-2-cyclopropyl-3,3-difluoro-7-methyl-1,2,3,4-tetrahydro-[1,4]oxazepino[2,3-c]quinolin-6(7H)-one (1:1)] it was 1.29 nM.
Turning to `CC1CCCN(c2ncc(Cl)c(Nc3ccc4c(c3)c3c(c(=O)n4C)OCC(F)(F)[C@H](C4CC4)N3)n2)C1C` (stereo partly drawn) [Example 12x08, (2S)-10-((5-chloro-2-(2,3-dimethylpiperidin-1-yl)pyrimidin-4-yl)amino)-2-cyclopropyl-3,3-difluoro-7-methyl-1,2,3,4-tetrahydro-[1,4]oxazepino[2,3-c]quinolin-6(7H)-one], the IC50 is 58.9 nM.
With `Cn1c(=O)c2c(c3cc(Nc4nc(N5CCC(F)(F)C(CC(=O)N6CCC6)C5)ncc4Cl)ccc31)N[C@@H](C1CC1)C(F)(F)CO2` (mixture of isomers) [Example 12x21, (2S)-10-((2-(3-(2-(azetidin-1-yl)-2-oxoethyl)-4,4-difluoropiperidin-1-yl)-5-chloropyrimidin-4-yl)amino)-2-cyclopropyl-3,3-difluoro-7-methyl-1,2,3,4-tetrahydro-[1,4]oxazepino[2,3-c]quinolin-6(7H)-one], the IC50 was 3.55 nM.
As to `CC(=O)N(C)[C@@H]1CN(c2ncc(Cl)c(Nc3ccc4c(c3)c3c(c(=O)n4C)OCC(F)(F)[C@H](C4CC4)N3)n2)CCC1(F)F` [Example 9m, N-((R)-1-(5-chloro-4-(((S)-2-cyclopropyl-3,3-difluoro-7-methyl-6-oxo-1,2,3,4,6,7-hexahydro-[1,4]oxazepino[2,3-c]quinolin-10-yl)amino)pyrimidin-2-yl)-4,4-difluoropiperidin-3-yl)-N-methylacetamide], the IC50 was 2.51 nM.

For the origin of these results see patent publication US12528826B2, “[1,4]oxazepino[2,3-c]quinolinone derivatives as BCL6 inhibitors” (Cancer Research Technology Limited, priority 2019, dated 2026).
